One data set concerns the target PSMA (Homo sapiens (Human), UniProt Q04609). Briefly: Competitive binding assay (IC50) on LNCaP cells with radioligand [125I-BA]KuE. The conditions noted are these: 1 hour on ice, radioligand [^125I-BA]KuE 0.2 nM, mean ± SD. The protocol:
In the case of the PSMA constructs, the radioiodinated ((S)-1-carboxy-5-(4-(-^125I-iodo-benzamido)pentyl)carbamoyl)-L-glutamic acid ([^125I-BA]KuE) was used as reference radioligand. The assay was performed on LNCaP cells seeded in 24-well plates (1.5×10^5 cells/well). The cells were incubated with increased concentrations of each ^natCu-complexed conjugates (ranging from 0.1 up to 100 nM) in the presence of 0.2 nM [^125I-BA]KuE. After 1 hour incubation on ice, the unbound (free) [^125I-BA]KuE was collected by removing the medium and the cells were detached with NaOH 1 M for counting (bound radioligand). Non-specific binding was defined as the amount of binding activity in the presence of the blocking agent 2-(phosphonomethyl)pentanedioic acid (2-PMPA) in high excess (10 μM).
(§1) Quantification of the free and bound radioligand was performed in a gamma-counter. The data were analyzed by GraphPad Prism 9 Software and the IC50 values were determined using the “log(inhibitor) vs response” equation based on the specific binding=total−non-specific binding.
(§2) Table 18. IC50 values were determined by competitive assays. […] The results are expressed as means standard deviation (SD) from a minimum of two separate experiments, each in triplicates.

In the next data set the test system is HEK-SST2 xenografts. Briefly: PET/CT imaging in HEK-SST2 xenografted mice. It is filed as in vivo. Conditions: 0-60 min and 240 min. The protocol:
Tumor xenografted mice were injected intravenously into the tail vein with the tested radiotracer. […] Mice were anesthetized with 1.5% isoflurane and dynamic PET scans were acquired during 1 hour upon injection of the radiotracer. The mice were euthanized by CO2 at 4 hours p.i., the bladder was mechanically emptied, and static PET scans were acquired for 30 min. PET images were acquired using the R-CUBE PET scanner system (MOLECUBES, Gent, Belgium) and they were decay corrected and reconstructed with the VivoQuant software version 4.0. The CT was imaged supine, headfirst, using the NanoSPECT/CT™ scanner (Bioscan Inc.). Topograms and helical CT scans of the whole mouse were first acquired using the following parameters: X-ray tube current: 177 μA, X-ray tube voltage 45 kVp, 90 seconds and 180 frames per rotation, pitch 1. CT images were reconstructed using CTReco (version r1.146), with a standard filtered back projection algorithm (exact cone beam) and post-filtered (RamLak, 100% frequency cut-off), resulting in a pixel size of 0.2 mm. Co-registered PET/CT images were visualized using maximum intensity projection (MIP) with InVivoScope (version 1.43, Bioscan Inc.). The results are presented in the Examples that follow.

The target in data set [1] is T1, SST2 (Homo sapiens (Human), UniProt P30874). Briefly: Saturation binding on HEK-SST2 cell membranes. Conditions: 37° C. The protocol:
Cell Membrane Preparation: HEK-SST2 cells were grown to confluence, mechanically disaggregated, washed with PBS (pH 7.4) and re-suspended in 20 mM of homogenization Tris buffer (pH 7.5) containing 1.3 mM EDTA, 0.25 M sucrose, 0.7 mM bacitracin, 5 μM soybean trypsin inhibitor, and 0.7 mM PMSF. The cells were homogenized using Ultra-Turrax, and the homogenized suspension was centrifuged at 500×g for 10 min at 4° C. The supernatant was collected in centrifuge tubes (Beckman Coulter Inc., Brea, CA, USA). This procedure was then repeated 5 times. The collected supernatant was centrifuged in an ultra-centrifuge (Beckman) at 4° C. for 55 min at 49,000×g. Then, the pellet was re-suspended in 10 mM ice-cold HEPES buffer (pH 7.5), aliquoted, and stored at −80° C. The protein concentration of those membrane suspensions was determined by the Bradford method, BSA as the standard.
Saturation Experiment: The association profiles of [^61Cu]Cu-NODAGA-LM3 was studied at different concentrations, ranging from 0.075 to 10 nM, in HEK-SST2 cell membranes at 37° C. Each assay tube contained 170 μL of binding buffer (20 mM HEPES, pH 7.4, containing 4 mM μgCl2, 0.2% BSA, 20 μg/L bacitracin, 20 μg/L PMSF and 200,000 KIU/L aprotinin). […] The dissociation constant (KD) and maximal binding capacity (Bmax) values were calculated using GraphPad Software Inc., Prism 7, San Diego, CA, USA (FIG. 37)

Another data set can be described thus: in vivo. The conditions noted are these: iv, 20 umol, total radioactivity.
Data set [2] can be described thus: Lipophilicity, log D by shake-flask method (1-octanol/PBS pH 7.4). It is filed as physicochemical. The conditions noted are these: pH 7.4, shake-flask, Table 17, mean ± SD, read-out: log D(O/PBS pH 7.4). The essentials: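 Radiotracer shaken 30 min in pre-saturated 1-octanol/PBS pH 7.4 (1:1), then centrifuged for phase separation. Radioactivity in each phase measured by gamma counting; log D reported as the average log of organic/PBS activity ratio.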

In data set [3] the target is T1, SST2. Briefly: Competitive binding assay (IC50) on HEK-SST2 cell membranes with 125I-Tyr-somatostatin-14. Conditions: 1 hour at 37° C., radioligand [^125I]-Tyr-somatostatin-14 0.05 nM, mean ± SD. The protocol: as §1, §2

PSMA, sequence (Q04609 whole entry): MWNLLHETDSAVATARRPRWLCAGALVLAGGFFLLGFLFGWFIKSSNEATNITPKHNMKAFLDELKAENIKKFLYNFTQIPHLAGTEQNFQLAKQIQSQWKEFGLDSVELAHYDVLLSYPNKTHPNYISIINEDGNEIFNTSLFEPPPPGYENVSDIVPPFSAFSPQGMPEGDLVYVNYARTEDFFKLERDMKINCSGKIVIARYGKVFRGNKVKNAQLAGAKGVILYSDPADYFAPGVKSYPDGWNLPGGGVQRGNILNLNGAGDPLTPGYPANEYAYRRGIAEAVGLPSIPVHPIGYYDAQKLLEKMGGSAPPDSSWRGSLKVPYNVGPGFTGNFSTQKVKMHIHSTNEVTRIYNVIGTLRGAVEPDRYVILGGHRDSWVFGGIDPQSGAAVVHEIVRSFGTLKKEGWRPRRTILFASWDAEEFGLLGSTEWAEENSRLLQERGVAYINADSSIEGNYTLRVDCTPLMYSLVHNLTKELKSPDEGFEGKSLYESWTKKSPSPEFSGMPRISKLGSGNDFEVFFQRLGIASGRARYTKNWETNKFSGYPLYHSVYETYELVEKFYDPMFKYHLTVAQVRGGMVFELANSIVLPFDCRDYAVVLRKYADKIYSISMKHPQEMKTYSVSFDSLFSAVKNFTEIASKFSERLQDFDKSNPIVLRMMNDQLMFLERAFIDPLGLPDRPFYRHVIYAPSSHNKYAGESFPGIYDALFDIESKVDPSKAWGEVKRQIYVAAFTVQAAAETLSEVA
T1 sequence (P30874 whole entry): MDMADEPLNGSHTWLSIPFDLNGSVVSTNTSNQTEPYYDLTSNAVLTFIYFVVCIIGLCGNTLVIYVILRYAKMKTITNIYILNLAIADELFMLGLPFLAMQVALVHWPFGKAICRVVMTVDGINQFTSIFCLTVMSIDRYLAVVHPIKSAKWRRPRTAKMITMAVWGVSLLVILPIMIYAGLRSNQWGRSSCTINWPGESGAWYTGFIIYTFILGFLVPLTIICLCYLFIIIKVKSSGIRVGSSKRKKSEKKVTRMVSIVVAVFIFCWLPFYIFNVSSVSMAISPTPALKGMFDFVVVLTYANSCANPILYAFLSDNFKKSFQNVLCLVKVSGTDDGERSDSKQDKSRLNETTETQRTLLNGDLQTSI
Experimental for in vivo: The tumors were allowed to grow for 1-3 weeks before commencement of the experiments.
The mice were randomly distributed in groups and euthanized at 1 and at 4 hours post-injection. The organs of interest were collected, rinsed, blotted, weighed and counted in a gamma counter. The results are expressed as percentage of injected activity per gram (% IA/g), representing the mean±standard deviation of n=4-8 mice per group and they were obtained by extrapolation from counts of an aliquot taken from the injected solution as standard.
The mice were randomly distributed in groups, injected with the radiotracer under investigation and euthanized at 1 and at 4 hours post-injection of the radiotracers under investigation. The organs of interest were collected, rinsed, blotted, weighed and counted in a gamma counter. The results are expressed as percentage of injected activity per gram (% IA/g), representing the mean±standard deviation of all mice per group and they were obtained by extrapolation from counts of an aliquot taken from the injected solution as standard.
The mice were randomly distributed in groups and euthanized at 4 hours post-injection. The organs of interest were collected, rinsed, blotted, weighed, and their respective radioactivity was counted in a gamma counter.

With `O=C([O-])CN1CCN(CC(=O)[O-])CCN([C@H](CCC(=O)N[C@H](Cc2ccc(O)c(I)c2)C(=O)N[C@H](Cc2ccccc2)C(=O)N[C@H](CCCCNC(=O)CCCCCCC(=O)NCCCC[C@H](NC(=O)N[C@@H](CCC(=O)O)C(=O)O)C(=O)O)C(=O)O)C(=O)O)CC1.[Cu+2]` [^natCu-NODAGA-PSMA-I&T], on PSMA, the IC50 stood at 9.3 ± 1.8 nM.

With `O=C([O-])CN1CCN(CC(=O)[O-])CCN(C(CCC(=O)N[C@H](Cc2ccc(O)c(I)c2)C(=O)N[C@H](Cc2ccccc2)C(=O)N[C@H](CCCCNC(=O)CCCCCCC(=O)NCCCC[C@H](NC(=O)N[C@@H](CCC(=O)O)C(=O)O)C(=O)O)C(=O)O)C(=O)O)CCN(CC(=O)O)CC1.[Cu+2]` (some centres unmarked) [^natCu-DOTAGA-PSMA-I&T, reference compound], the IC50 at PSMA was found to be 11.2 ± 2.3 nM.

On to `C[C@@H](O)[C@@H]1NC(=O)[C@H](CCCCN)NC(=O)[C@@H](Cc2ccc(NC(N)=O)cc2)NC(=O)[C@H](Cc2ccc(O)cc2)NC(=O)[C@H](NC(=O)[C@H](Cc2ccc(Cl)cc2)NC(=O)CCC(C(=O)O)N2CCN(CC(=O)O)CCN(CC(=O)O)CC2)CSSC[C@@H](C(=O)N[C@H](Cc2ccc(O)cc2)C(N)=O)NC1=O` (some centres unmarked) [[^61Cu]Cu-NODAGA-LM3, metal not drawn], for which the “distribution pattern on PET/CT” value with HEK-SST2 xenografts is “same distribution pattern”. The Kd on SST2 [1] lay in the range of 1.41 to 2.92 nM. The tissue uptake at 4 h in the data set “in vivo” (athymic nude Foxn1+Foxn1+, mouse, Biodistribution Adrenal) was determined as 0.6 ± 0.15 %ID/g; in “in vivo” (athymic nude Foxn1+Foxn1+, mouse, Biodistribution Blood), 0.11 ± 0.02 %ID/g; in “in vivo” (athymic nude Foxn1+Foxn1+, mouse, Biodistribution Heart) it was 0.13 ± 0.02 %ID/g; in “in vivo” (athymic nude Foxn1+Foxn1+, mouse, Biodistribution Intestine), 0.43 ± 0.08 %ID/g; in the data set “in vivo” (athymic nude Foxn1+Foxn1+, mouse, Biodistribution Liver), 0.44 ± 0.06 %ID/g; in the data set “in vivo” (athymic nude Foxn1+Foxn1+, mouse, Biodistribution Lung), 0.32 ± 0.05 %ID/g. Also, the tissue uptake at 4 h in “in vivo” (athymic nude Foxn1+Foxn1+, mouse, Biodistribution Pancreas) amounted to 0.43 ± 0.12 %ID/g; in “in vivo” (athymic nude Foxn1+Foxn1+, mouse, Biodistribution Spleen), 0.14 ± 0.01 %ID/g; in “in vivo” (athymic nude Foxn1+Foxn1+, mouse, Biodistribution Stomach), 0.68 ± 0.15 %ID/g; in the data set “in vivo” (athymic nude Foxn1, mouse, Biodistribution Bone) it was 0.31 ± 0.07 %ID/g; in the data set “in vivo” (athymic nude Foxn1, mouse, Biodistribution Kidneys) it was 4.59 ± 0.41 %ID/g; in “in vivo” (athymic nude Foxn1, mouse, Biodistribution Muscle), 0.06 ± 0.02 %ID/g. Besides, the tissue uptake at 4 h in “in vivo” (athymic nude Foxn1, mouse, Biodistribution Pituitary) amounted to 2.96 ± 0.62 %ID/g; in the data set “in vivo” (athymic nude Foxn1, mouse, Biodistribution SSTR2-tumor), 20.4 ± 4.2 %ID/g. The logD in data set [2] was -2.42 ± 0.04.

`CC(O)C1NC(=O)C(CCCCN)NC(=O)C(Cc2ccc(NC(N)=O)cc2)NC(=O)C(Cc2ccc(O)cc2)NC(=O)C(NC(=O)C(Cc2ccc(Cl)cc2)NC(=O)CCC(C(=O)O)N2CCN(CC(=O)O)CCN(CC(=O)O)CC2)CSSCC(C(=O)NC(Cc2ccc(O)cc2)C(N)=O)NC1=O` (centres unmarked) [NODAGA-LM3] had an IC50 at SST2 [3] of 17.8 ± 2 nM.

Source of the values: US20240173440A1, “HIGH PURITY COPPER RADIOPHARMACEUTICAL COMPOSITIONS AND DIAGNOSTIC AND THERAPEUTIC USES THEREOF” (Nuclidium AG, priority 2022, published 2024).
